Assay results as given in patent US11427548B2 (Arvinas Operations, Inc., priority 2015, dated 2022).
Like-named read-outs stand apart in the source and are kept apart here.

Molecular target: T1, Androgen Receptor (Homo sapiens, UniProt P10275)
T1 construct: endogenous in cells; host or cells: VCaP cells
T1 sequence (P10275 1-920): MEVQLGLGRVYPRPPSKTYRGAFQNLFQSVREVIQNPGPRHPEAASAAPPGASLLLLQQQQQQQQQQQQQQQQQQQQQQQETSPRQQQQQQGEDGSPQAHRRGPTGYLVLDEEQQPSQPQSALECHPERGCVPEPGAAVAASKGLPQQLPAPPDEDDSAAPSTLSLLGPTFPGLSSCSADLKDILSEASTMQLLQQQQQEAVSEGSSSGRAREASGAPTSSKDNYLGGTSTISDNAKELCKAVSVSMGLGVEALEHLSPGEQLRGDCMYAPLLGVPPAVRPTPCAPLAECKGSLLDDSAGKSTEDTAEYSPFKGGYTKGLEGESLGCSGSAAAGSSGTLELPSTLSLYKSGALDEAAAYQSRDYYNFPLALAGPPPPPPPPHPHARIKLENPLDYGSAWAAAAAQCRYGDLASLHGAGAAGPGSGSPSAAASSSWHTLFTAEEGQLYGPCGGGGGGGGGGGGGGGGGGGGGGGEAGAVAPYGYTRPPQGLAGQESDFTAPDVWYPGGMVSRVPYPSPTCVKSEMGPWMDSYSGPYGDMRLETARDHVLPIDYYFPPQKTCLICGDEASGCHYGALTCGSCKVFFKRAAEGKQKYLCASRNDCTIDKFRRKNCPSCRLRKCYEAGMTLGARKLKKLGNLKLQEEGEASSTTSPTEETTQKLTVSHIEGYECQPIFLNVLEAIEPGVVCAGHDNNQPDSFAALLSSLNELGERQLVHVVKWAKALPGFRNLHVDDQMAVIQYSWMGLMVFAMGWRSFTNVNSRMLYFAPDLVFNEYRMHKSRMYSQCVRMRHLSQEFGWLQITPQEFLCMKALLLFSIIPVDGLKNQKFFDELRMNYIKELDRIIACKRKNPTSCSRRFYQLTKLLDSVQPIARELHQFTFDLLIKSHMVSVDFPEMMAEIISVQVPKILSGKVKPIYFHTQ
Experiment: Androgen Receptor ELISA assay (PathScan AR ELISA) in VCaP cells: AR degradation, Dmax and DC50
Type: cell-based
In short: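 VCaP cells in phenol red-free RPMI with 5% charcoal-stripped FBS were grown at least 3 days, then given compound as 7 half-log doses in 0.1% DMSO with 0.1 nM R1881 for 24 h. Lysates went into a sandwich AR ELISA with TMB read at 450 nm.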

[1] = VCaP cells; Table 36; read-out: VCaP DC50
[2] = VCaP, VCaP cells; Table 36; read-out: VCaP Dmax (%)
[3] = VCaP, read-out: VCaP Dmax (%), VCaP cells; Table 36
[4] = read-out: VCaP DC50; VCaP cells; Table 35
[5] = read-out: VCaP DC50; VCaP cells; Table 34

**Q.** What does the source list for Cc1ncsc1-c1ccc([C@H](C)NC(=O)[C@H]2C[C@H](O)CN2C(=O)[C@@H](NC(=O)CN2C3CCC2CN(CCCCc2ccc(C(=O)N[C@H]4C(C)(C)[C@H](Oc5ccc(C#N)c(Cl)c5)C4(C)C)cc2)C3)C(C)(C)C)cc1 [Example 858, (2R,4S)-1-((2S)-2-(2-(3-(4-(4-(((1r,3r)-3-(3-chloro-4-cyanophenoxy)-2,2,4,4-tetramethylcyclobutyl)carbamoyl)phenyl)butyl)-3,8-diazabicyclo[3.2.1]octan-8-yl)acetamido)-3,3-dimethylbutanoyl)-4-hydroxy-N-((S)-1-(4-(4-methylthiazol-5-yl)phenyl)ethyl) pyrrolidine-2-carboxamide]?
**A.** DC50 [1]: > 501 nM; Dmax (VCaP, read-out: VCaP Dmax (%)): < 25%

**Q.** With Cc1ncsc1-c1ccc([C@H](C)NC(=O)[C@@H]2C[C@@H](O)CN2C(=O)[C@@H](NC(=O)CN2CCN(CCOc3ccc(C(=O)N[C@H]4C(C)(C)[C@H](Oc5ccc(C#N)c(Cl)c5)C4(C)C)cc3)CC2)C(C)(C)C)cc1 [Example 615, (2S,4R)-1-((S)-2-(2-(4-(2-(4-(((1r,3r)-3-(3-chloro-4-cyanophenoxy)-2,2,4,4-tetramethylcyclobutyl)carbamoyl)phenoxy)eth-yl)piperazin-1-yl)acetamido)-3,3-dimethylbutanoyl)-4-hydroxy-N-((S)-1-(4-(4-methylthiazol-5-yl)phenyl)ethyl)pyrrolidine-2-carboxamide] as the molecule, how does the DC50 [1] read?
**A.** < 50 nM

**Q.** What about the Dmax [2] of the same molecule?
**A.** > 71%

**Q.** Which results are given for Cc1ncsc1-c1ccc([C@H](C)NC(=O)[C@@H]2C[C@@H](O)CN2C(=O)[C@@H](NC(=O)COCCCOCCCCCOc2ccc(C(=O)N[C@H]3C(C)(C)[C@H](Oc4ccc(C#N)c(Cl)c4)C3(C)C)cc2)C(C)(C)C)cc1 [Example 635, (2S,4R)-1-((S)-2-(2-(3-((5-(4-(((1r,3r)-3-(3-chloro-4-cyanophenoxy)-2,2,4,4-tetramethylcyclobutyl)carbamoyl)phenoxy)pen-tyl)oxy)propoxy)aceta-mido)-3,3-dimethylbutanoyl)-4-hydroxy-N-((S)-1-(4-(4-methylthiazol-5-yl)phenyl)ethyl)pyrrolidine-2-carboxamide]?
**A.** DC50 [1]: < 50 nM; Dmax [3]: 51 to 70%

**Q.** Which DC50 [1] does the source give for Cc1ncsc1-c1ccc([C@H](C)NC(=O)[C@@H]2C[C@@H](O)CN2C(=O)[C@@H](NC(=O)CN2CCN(CCCc3ccc(C(=O)N[C@H]4C(C)(C)[C@H](Oc5ccc(C#N)c(Cl)c5)C4(C)C)cn3)CC2)C(C)(C)C)cc1 [Example 837, N-((1r,3r)-3-(3-chloro-4-cyanophenoxy)-2,2,4,4-tetramethylcyclobutyl)-6-(3-(4-(2-(((S)-1-((2S, 4R)-4-hydroxy-2-(((S)-1-(4-(4-methylthiazol-5-yl)phenyl)ethyl)carbamoyl)pyrrolidin-1-yl)-3,3-dimethyl-1-oxobutan-2-yl)amino)-2-oxoethyl)piperazin-1-yl)propyl) nicotinamide] here?
**A.** < 50 nM

**Q.** And the Dmax [2]?
**A.** > 71%

**Q.** Cc1ncsc1-c1ccc(CNC(=O)[C@@H]2C[C@@H](O)CN2C(=O)[C@@H](NC(=O)COCCCCNc2ccc(-c3ccc(N4C(=S)N(c5cnc(C#N)c(C(F)(F)F)c5)C(=O)C4(C)C)cc3)cc2)C(C)(C)C)cc1 [Example 391] was tested. Which DC50 (VCaP cells; Table 34; read-out: VCaP DC50) did it give?
**A.** < 50 nM

**Q.** And the Dmax (VCaP, VCaP cells; Table 34; read-out: VCaP Dmax (%))?
**A.** 51 to 70%

**Q.** With Cc1ncsc1-c1ccc(CNC(=O)[C@@H]2C[C@@H](O)CN2C(=O)[C@H](C(C)C)N2Cc3ccc(N4CCN(CCCc5ccc(C(=O)N[C@H]6C(C)(C)[C@H](Oc7ccc(C#N)c(C(F)(F)F)c7)C6(C)C)cc5)CC4)cc3C2=O)cc1 [Example 762, (2S,4R)-1-((S)-2-(6-(4-(3-(4-(((1r,3r)-3-(4-cyano-3-(trifluoromethyl)phenoxy)-2,2,4,4-tetramethylcyclobutyl)carbamoyl)phenyl)propyl)piperazin-1-yl)-1-oxoisoindolin-2-yl)-3-methylbutanoyl)-4-hydroxy-N-(4-(4-methylthiazol-5-yl)benzyl)pyrrolidine-2-carboxamide] as the molecule, how does the DC50 [1] read?
**A.** > 501 nM

**Q.** And the Dmax [3]?
**A.** < 25%

**Q.** For Cc1ncsc1-c1ccc(CNC(=O)[C@@H]2C[C@@H](O)CN2C(=O)[C@@H](NC(=O)COC[C@H](O)CCOc2ccc(-c3ccc(N4C(=S)N(c5ccc(C#N)c(C(F)(F)F)c5)C(=O)C4(C)C)cc3)cc2)C(C)(C)C)cc1 [Example 130, (2S,4R)-1-[(2S)-2-{2-[(2R)-4-[4-(4-{3-[4-cyano-3-(trifluoromethyl)phenyl]-5,5-dimethyl-4-oxo-2-sulfanylideneimidazolidin-1-yl}phenyl)phenoxy]-2-hydroxybutoxy]acetamido}-3,3-dimethylbutanoyl]-4-hydroxy-N-{[4-(4-methyl-1,3-thiazol-5-yl)phenyl]methyl}pyrrolidine-2-carboxamide], which Dmax (VCaP, read-out: VCaP Dmax (%)) is on record?
**A.** 51 to 70%

**Q.** What about the DC50 (read-out: VCaP DC50; concentration that caused 50% Androgen Receptor degradation, VCaP cells (Table 32)) of the same molecule?
**A.** < 50 nM

**Q.** For Cc1ncsc1-c1ccc([C@H](C)NC(=O)[C@@H]2C[C@@H](O)CN2C(=O)[C@H](C(C)C)n2cc(OCCCOCCC(O)CCOc3ccc(N4C(=S)N(c5ccc(C#N)c(C(F)(F)F)c5)C(=O)C4(C)C)cc3)cn2)cc1 (stereo partly shown) [Example 419], which Dmax (VCaP, read-out: VCaP Dmax (%)) is on record?
**A.** 26 to 50%

**Q.** And the DC50 [4]?
**A.** < 50 nM

**Q.** Cc1ncsc1-c1ccc([C@H](C)NC(=O)[C@@H]2C[C@@H](O)CN2C(=O)[C@@H](NC(=O)c2cc3ccc(OC4CN(c5ncc(C(=O)N[C@H]6C(C)(C)[C@H](Oc7ccc(C#N)c(Cl)c7)C6(C)C)cn5)C4)cc3o2)C(C)(C)C)cc1 [Example 422] was tested. Which DC50 (VCaP cells; Table 35; read-out: VCaP DC50) did it give?
**A.** < 50 nM

**Q.** And the Dmax (VCaP, VCaP cells; Table 35; read-out: VCaP Dmax (%))?
**A.** > 71%

**Q.** For Cc1ncsc1-c1ccc(CNC(=O)[C@@H]2C[C@@H](O)CN2C(=O)[C@H](C)NC(=O)COCCCOCCCCOc2ccc(N3C(=S)N(c4ccc(C#N)c(C(F)(F)F)c4)C(=O)C3(C)C)cc2)cc1 [Example 366], which DC50 [5] is on record?
**A.** < 50 nM

**Q.** For Cc1ncsc1-c1ccc(CNC(=O)[C@@H]2C[C@@H](O)CN2C(=O)[C@@H](NC(=O)COCCCOCCCCOc2ccc(N3C(=S)N(c4ccc(C#N)c(Cl)c4)C(=O)C3(C)C)cc2F)C(C)(C)C)cc1 [Example 41, (2S,4R)-1-[(2S)-2-{2-[3-(4-{4-[3-(3-chloro-4-cyanophenyl)-5,5-dimethyl-4-oxo-2-sulfanylideneimidazolidin-1-yl]-2-fluorophenoxy}butoxy)propoxy]acetamido}-3,3-dimethylbutanoyl]-4-hydroxy-N-{[4-(4-methyl-1,3-thiazol-5-yl)phenyl]methyl}pyrrolidine-2-carboxamide], which Dmax (VCaP, read-out: VCaP Dmax (%)) is on record?
**A.** > 71%

**Q.** And the DC50 (read-out: VCaP DC50; concentration that caused 50% Androgen Receptor degradation, VCaP cells)?
**A.** < 50 nM

**Q.** Cc1ncsc1-c1ccc([C@H](CO)NC(=O)[C@@H]2C[C@@H](O)CN2C(=O)[C@@H](NC(=O)CN2CCN(CCCc3ccc(C(=O)N[C@H]4C(C)(C)[C@H](Oc5ccc(C#N)c(Cl)c5)C4(C)C)cc3)CC2)C(C)(C)C)cc1 [Example 820, (2S,4R)-1-((S)-2-(2-(4-(3-(4-(((1r,3r)-3-(3-chloro-4-cyanophenoxy)-2,2,4,4-tetramethylcyclobutyl)carbamoyl)phenyl)propyl)piperazin-1-yl)acetamido)-3,3-dimethylbutanoyl)-4-hydroxy-N-((R)-2-hydroxy-1-(4-(4-methylthiazol-5-yl)phenyl)ethyl) pyrrolidine-2-carboxamide] was tested. Which DC50 [1] did it give?
**A.** < 50 nM

**Q.** And the Dmax [2]?
**A.** > 71%

**Q.** How did the Dmax (VCaP, read-out: VCaP Dmax (%)) turn out when Cc1ncsc1-c1ccc([C@H](C)NC(=O)[C@@H]2C[C@@H](O)CN2C(=O)[C@@H](NC(=O)COC[C@H](O)CCOc2ccc(-c3ccc(N4C(=S)N(c5ccc(C#N)c(C(F)(F)F)c5)C(=O)C4(C)C)cc3)cc2)C(C)(C)C)cc1 [Example 576] was run?
**A.** > 71%

**Q.** And the DC50 [4]?
**A.** < 50 nM

**Q.** Which DC50 [1] does the source give for Cc1ncsc1-c1ccc([C@H](C)NC(=O)[C@@H]2CC(O)CN2C(=O)[C@H](C(C)C)N2Cc3ccc(OCCN4CCN(c5ccc(C(=O)N[C@H]6C(C)(C)[C@H](Oc7ccc(C#N)c(Cl)c7)C6(C)C)cn5)CC4)cc3C2=O)cc1 (stereo partly drawn) [Example 856, N-((1r,3r)-3-(3-chloro-4-cyanophenoxy)-2,2,4,4-tetramethylcyclobutyl)-6-(4-(2-((2-((S)-1-((2S, 4R)-4-hydroxy-2-(((S)-1-(4-(4-methylthiazol-5-yl)phenyl)ethyl)carbamoyl)pyrrolidin-1-yl)-3-methyl-1-oxobutan-2-yl)-3-oxoisoindolin-5-yl)oxy)ethyl)piperazin-1-yl)nicotinamide] here?
**A.** > 501 nM

**Q.** And the Dmax [2]?
**A.** < 25%

**Q.** With CC(C)(C)[C@H](NC(=O)COCCCOCCCCOc1ccc(N2C(=S)N(c3cc(Cl)c(C#N)cc3F)C(=O)C2(C)C)cc1)C(=O)N1C[C@H](O)C[C@H]1C(=O)NCc1ccc(-c2cnco2)cc1 [Example 369] as the molecule, how does the DC50 [5] read?
**A.** < 50 nM
